According to patent US10934346B2, “Modified T cell comprising a polynucleotide encoding an inducible stimulating molecule comprising MyD88, CD40 and FKBP12” (priority 2014, dated 2021):
Entries after “also recorded” stand apart in the source; their conditions may differ.

Tests used:
[1] = system: Capan-1 tumor; assay: Capan-1 tumor xenograft in NSG mice with T cell bioluminescence imaging; assay type: in vivo
Experimental: FIG. 3A) Shorn mice were engrafted with Capan-1 tumor cells and treated with PSCA.ζ CAR T cells cotransduced with control vector or iMC, or non-transduced T cells, and injected i.v. on days 7 and 14. Exogenous IL-2 was given i.p. until day 21 and then withdrawn. All mice received 5 mg/kg rimiducid i.p. twice per week (biw). Tumor size was measured by calipers (FIG. 3B) and survival assessed over a 100-day period (FIG. 3C). FIG. 3D) to measure in vivo CAR T cell persistence and expansion, NSG mice were used. Mice were injected s.c. with Capan-1 tumor cells and then treated with non-transduced (NT) or FKBP and PSCA.ζ-modified T cells or iMC and PSCA.ζ-modified T cells. Mice treated with iMC-enabled T cells received 2.5 mg/kg rimiducid once (qw), twice weekly (biw) or saline only via i.p. injection. FIG. 3E) Subcutaneous tumor size was measured by calipers over a 30 day period.
FIG. 3F) In vivo bioluminescence imaging was performed on mice treated with iMC-transduced T cells receiving saline only, or with systemic rimiducid administration. […]
In vivo studies. […] Tumors were measured by calipers and tumor size calculated. […] Photon emission was analyzed by constant region-of-interest (ROI) drawn over the tumor region and the signal measured as total counts as previously validated^10. As above, efficacy was assessed by measuring tumors using calipers. […]

[2] = system: T cells transduced with RV-172 (iMC); assay: AP1903-induced T cell activation, 27-plex cytokine/chemokine bead array; assay type: cell-based, human; settings: 10 nM AP1903, 24 hours, RV-172 T cells
Experimental: 5. To assess AP1903-dependent T cell activation of T cells, 1×10^5 non-transduced (NT) or T cells transduced with the control retrovirus (RV-171) or the retrovirus containing iMC (RV-172) were plated in triplicate in 96-well plates and cultured at 37° C. 5% CO2 with media alone, or media containing 10 nM AP1903. 6. After 24 hours, the cells were gently mixed and the plate was centrifuged. Supernatant was then collected and plated into a BIOPLEX Human Cytokine/Chemokine 27-plex plate, which measures the following cytokines and chemokines: • a. Basic-FGF, G-CSF, GM-CSF, IFN-gamma, IL-1Ra, IL-1beta, IL-2, IL-4, IL-5, IL-6, […], IL-7, […], IL-9, IL-10, IL-12p70, IL-13, IL-15, IL-17RA, eotaxin, IP10, MCP-1, MIP-1alpha, MIP-1beta, PDGF-bb, RANTES, TNF-alpha and VEGF. • b. The cytokines and chemokines in the supernatants were subsequently measured and compared to standards in the plate using a BIOPLEX MAGPIX Multiplex Reader.
T cells were stimulated with 10 nM AP1903 for 24 hours then supernatants were assayed for cytokine levels.

[3] = system: CAPAN-1 GFP+ tumor cells; assay: Co-culture of iMC-enabled T cells with CAPAN-1-GFP tumor cells; assay type: cell-based, human; settings: 10 nM AP1903, 5:1 T cells to tumor cells, 72 hours, RV-172 T cells
Experimental: FIG. 53 Activation of iMC-transduced T cells with AP1903 induces T cell killing of tumor cells. […] Co-cultures were cultured with or without 10 nM AP1903. After 72 hours, co-cultures were analyzed for GFP^+ tumor cells (X-axis) by flow cytometry.
FIG. 55: Activation of iMC-transduced T cells with AP1903 induces T cell killing of tumor cells. […] Co-cultures were cultured with or without 10 nM AP1903. After 72 hours, co-cultures were analyzed for GFP^+ tumor cells by flow cytometry (n=2).
FIG. 56: Activation of iMC-transduced T cells with AP1903 induces T cell killing of tumor cells. […] Co-cultures were cultured with or without 10 nM AP1903.
3. Non-transduced T cells or cells transduced with RV-171 (control vector) or RV-172 (iMC vector) were cultured at a 5:1 ratio of T cells to tumor cells in media supplemented with 50 U/ml IL-2, and either with or without 10 nM AP1903. Co-cultures were then incubated at 37° C. and 5% CO2 for 72 hours. Cultures were subsequently analyzed for the presence of GFP^+ tumor cells by fluorescent microscopy and by harvesting the cultures with 0.25% trypsin/EDTA and measuring the frequency of GFP^+CD3^− tumor cells in the culture by flow cytometry.

[4] = system: Capan-1-GFP tumor cells; assay: Coculture of CAR/iMC T cells with Capan-1-GFP tumor cells; settings: 10 nM rimiducid, PSCA.ζ CAR and iMC T cells, 7 days
Experimental: FIG. 2C) Non-transduced and PSCA.ζ CAR T cells modified with either FKBP or iMC were cocultured with Capan-1-GFP tumor cells at a 1:1 T cell to tumor cell ratio with and without 10 nM rimiducid. Tumor cell and T cell frequency were assessed after 7 days by flow cytometry. Tumor cell frequency was assessed by flow cytometry by measuring CD3^−GFP^+ tumor cells by SSC/GFP gating. Enrichment of T cells coexpressing iMC and CAR were assessed in coculture assays by flow cytometry by measuring CD19-PE and anti-CAR-APC frequency, respectively. FIG. 2D) T cells were subsequently assessed for CD25 expression and measured for T cell proliferation (FIG. 2E) using flow cytometry and cell enumeration.
FIG. 12B) Non-transduced T cells and T cells transduced with FKBP^+PSCA.ζ, FKBP^+PSCA.28.ζ) or iMC^+PSCA.ζ were cocultured with Capan-1-GFP tumor cells at a 1:1 effector:target ratio for 7 days and analyzed for residual tumor cells (CD3^−GFP^+) by flow cytometry.
Coculture experiment. […] After 7 days, all residual cells were collected by trypsinization, counted and stained with CD3, CD19 and Fc-specific antibodies and analyzed by flow cytometry. […]

## CC[C@H](C(=O)N1CCCC[C@H]1C(=O)O[C@H](CCc1ccc(OC)c(OC)c1)c1cccc(OCC(=O)NCCNC(=O)COc2cccc([C@@H](CCc3ccc(OC)c(OC)c3)OC(=O)[C@@H]3CCCCN3C(=O)[C@@H](CC)c3cc(OC)c(OC)c(OC)c3)c2)c1)c1cc(OC)c(OC)c(OC)c1 (relative stereo) [rimiducid, 2-Piperidinecarboxylic acid, 1-[(2S)-1-oxo-2-(3,4,5-trimethoxyphenyl)butyl]-, 1,2-ethanediylbis [imino(2-oxo-2,1-ethanediyl)oxy-3,1-phenylene[(1R)-3-(3,4-Dimethoxyphenyl)propylidene]] ester, [2S-[1(R*),2R*[S*[S*[1(R*),2R*]]]]]-(9Cl)]
[1]; rimiducid 2.5 mg/kg once or twice weekly, iMC and PSCA.ζ T cells
  tumor control: enabled enhanced tumor control
[1]; systemically and at the subcutaneous tumor site
  T cell bioluminescence (BLI): dramatic increase in T cell BLI
[2]
  cytokines and chemokines induced: GM-CSF, IFN-gamma, IL-13, IL-4, IL-5, IL-6, IL-8, IL-1beta, IL-12p70, IP10, MIP-1alpha, MIP-1beta, RANTES, and TNF-alpha
  cytokines and chemokines not induced: Basic-FGF, G-CSF, IL-1Ra, IL-2, IL-7, IL-9, IL-10, IL-15, IL-17RA, eotaxin, MCP-1, PDGF-bb and VEGF
[3]
  GFP+ tumor cells remaining: elimination of GFP^+ tumor cells; also recorded: showed very few viable GFP^+ tumor cells
[4]
  Capan-1-GFP tumor cell elimination: further enhanced Capan-1-GFP elimination
